Reference: US11299715B2, “Use of iNOS inhibitors to increase viral yield in culture” (priority 2013, dated 2022)

Experiments:
[1] = system: rHSV-1 d27-1 (d27-1) vector; experiment: ATA-HSV protocol: rHSV-1 d27-1 vector yield in V27 cell supernatants; format: cell-based, HSV-1
Description: The wtHSV-1 KOS strain and the ICP27-deficient derivatives of the wtHSV-1 KOS strain: vectors d27-1 (Rice and Knipe, J. Virol. (1990) 64:1704-1715), rHSV-rep2/cap2 and rHSV-EGFP (Kang et al., Gene Ther. (2009) 16:229-239) and their producer ICP27-complementing V27 cell line were obtained from AGTC (Alachua, Fla.). The wtHSV-1 MacIntyre strain, purchased from Advanced Biotechnologies Inc. (ABI, Columbia Md.) and wtHSV-1 KOS strain were propagated in Vero, 293 or HeLa cell lines. Infectious vector particles were harvested 72 hr postinfection by recovering culture supernatant. The titers of HSV-1 stocks in DNase resistant particles/ml (DRP/ml) were determined by Taqman assay. Viral genomes within crude culture medium were quantified via treatment in the presence of DNase I (50 U/ml final; Promega) at 37° C. for 60 min, followed by proteinase K (Invitrogen) digestion (1 U/ml) at 50° C. for 60 min, and then denatured at 95° C. for 30 min. Linearized plasmid pZero 195 UL36 (obtained from AGTC, Inc., Alachua, Fla.) was used to generate standard curves.
ATA (Sigma-A1895 Aurintricarboxylic acid practical grade, ≥85% (titration), powder) stock solution was generated as 500 μM concentration in 100 mM sodium bicarbonate water solution. ATA stock solution was further diluted in DMEM+/−10% fetal bovine serum (FBS, Hyclone, Waltham, Mass.) into concentration ranges of […] ATA (8.5-21 μgATA/ml). The HSV-1 infection at multiplicity of infection of 0.15 (MOI=0.15) (typically 6×10^5 cells in a 6-well plate) was performed in 40% (⅖ vol) of the total final media volume for 1-2 hrs and the remaining media (60% or ⅗ of the total final volume) was added during the dilution step. The cells were then incubated 72 hours and supernatant harvested to perform forming units per milliliter (PFU/ml) and DRP/ml titer assays.
In order to test whether ATA could increase the rHSV-1 d27-1 (d27-1) vector yield in V27 cells, ATA was applied to the media during the infection (Step 1) or dilution steps (Step 2) (FIG. 2A). The d27-1 infection at MOI=0.15 was performed in ⅖ of the final media volume and the remaining ⅗ of the media was added during dilution step.
In order to determine which concentrations and conditions for ATA addition have impact on HSV yields, the following experiments were conducted. ATA at varying concentrations was added to V27 cultures infected with the HSV-1 d27-1 vectors in either six-well plates (FIG. 2B) or T150 flasks (FIG. 2C) in two steps as follows. In Step 1 of the protocol, V27 cells were infected with 0.15 MOI of the rHSV vector in ⅖ of the final volume of DMEM with 10% FBS and 0-60 μM ATA concentrations. Cells were cultured for 1-2 hours at 37° C. to complete Step 1. In Step 2, the concentration of ATA was reduced to a range between 12-24 μM by the addition of ⅗ of final media volume. Cells were cultured for 70-74 hours at 37° C. and the supernatant harvested. Viral titers were expressed as Dnase Resistant Particles (DRP/ml) or Plaque Forming Units (pfu/ml) per ml and were determined as described above.
In this experiment, V27 cells were seeded into six well plates the day prior to infection at 6×10^5 cells/well. HSV 2× infection solution was prepared as follows: HSV-1 d27.1 stock was added to DMEM (no FBS) at 2× titer that the cells would be infected at final MOI 0.15. Several 2×ATA solution combinations were prepared containing either 100 μM or 40 μM ATA in DMEM and without FBS or with 20% FBS.
HSV 2× infection solution was mixed equal volumes of either DMEM−/+20% FBS or desired 2×ATA solution−/+20% FBS, vortexed, and 1 ml of infectious inoculum per well was added in Step 1. If wells contained ATA in Step 1, the concentration was 50 μM and all wells were incubated for 1-2 hrs. In Step 2, additional 1.5 ml of DMEM combinations−/+40 μM ATA and −/+20% FBS were added. If wells contained ATA whether in Step 1 or Step 2, the final ATA concentration was 20 μM. […]

iNOS = experiment: Western blot of iNOS in HSV-1 d27.1-infected V27 cell lysates; format: cell-based, African green monkey; conditions: 30 μM ATA; d27.1 MOI 1; V27 lysates 24 h.p.i.; with or without 10% FBS
Procedure: V27 cells in Dulbecco's Modified Eagles Medium (DMEM) (Hyclone, Waltham, Mass.) were infected with the HSV-1 d27.1 vector at an MOI of 1 and treated with 30 μM ATA (Sigma, St. Louis, Mo.), with or without 10% fetal bovine serum (FBS). Control experiments without ATA were also performed. V27 cell lysates were obtained 24 hours post infection (h.p.i.) and Western blots were run on the lysates and iNOS protein was detected by using purified rabbit anti-iNOS/NOS Type II pAb (BD Biosciences, Cat#610332).

[2] = serum-free media, ATA at Step 2, 20 μM final
[3] = serum-free media, ATA starting at 3 μM at Step 1

With O=C(O)C1=CC(=C(c2ccc(O)c(C(=O)O)c2)c2ccc(O)c(C(=O)O)c2)C=CC1=O [ATA, 5-((3-carboxy-4-hydroxyphenyl)(3-carboxy-4-oxo-2,5-cyclohexadien-1-ylidene)methyl)-2-hydroxybenzoic acid] the “d27-1 titer in supernatant (PFU/ml)” value ([1]; 50 μM ATA at infection step, 20 μM f.c., 72 h.p.i., control 1.4±0.2×10^7) was 1.2±0.3×10^8 PFU/ml, the “d27-1 titer in supernatant (DRP/ml)” value ([1]; 50 μM ATA at infection step, 20 μM f.c., 72 h.p.i., control 4.0±0.3×10^7) was 3.7±0.2×10^8 DRP/ml and the “increase of d27-1 titers in supernatant” value ([1]; 50 μM ATA at infection step, 20 μM f.c., harvest 72 h.p.i.) was “about 10 times”. For the same compound, the “Cytopathic effect (CPE) at the time of harvest” value ([1]; 72 hpi, V27 monolayers, 100% CPE in the absence of ATA) was 20-60%, the “HSV titers versus cultures without ATA” value ([1]; ATA added in Step 1 or Step 2, six-well plates and T150 flasks, 10% FBS) was “significantly higher” and the “HSV-1 plaque formation or cell lysis in V27 cell monolayers” value ([1]; ATA treatment) was “delayed”. For the same compound, the “DRP titer, ATA in serum-free media at dilution step (Step 2)” value [1, 2] was “reduced below control level”, the “PFU/ml titer, ATA in serum-free media at dilution step (Step 2)” value [1, 2] was “below detection” and the “DRP/ml titer, ATA in serum-free media at infection Step 1” value [1, 3] was “below the detection limit”. The “PFU/ml titer, ATA in serum-free media at infection Step 1” value [1, 3] was “below the detection limit”, the “d27-1 titers with ATA (DRP/ml)” value ([1]; summary statement) was ≥ 4×10^8 DRP/ml and the “d27-1 titers with ATA (PFU/ml)” value ([1]; summary statement) was “at least 1×10^8 PFU/ml”. The “increase of d27-1 yields in V27 cells supernatants” value ([1]; summary statement) was 3-5 times and the “iNOS expression (Western blot)” value (iNOS) was “inhibits”.
